Laboratory results as given in publication PMC3914206.

Assays:
Type in all cases: binding
Settings in all cases: Compound Concentration 10 µM
panel of 442 kinases [1] = molecular target: T1, panel of 442 kinases (Homo sapiens, UniProt O14578)
T1 construct: purchased KINOMEscan
Description: (§1) We assessed the selectivity of members of this scaffold using the KINOMEscan methodology across a near comprehensive panel of 442 kinases [[18,27]].

panel of 442 kinases [2] = molecular target: T2, panel of 442 kinases (Homo sapiens, UniProt P42336, H1047Y)
T2 construct: purchased KINOMEscan
Description: as §1

panel of 442 kinases [3] = molecular target: T3, panel of 442 kinases (Homo sapiens, UniProt Q14004)
T3 construct: purchased KINOMEscan
Description: as §1

T2 sequence (P42336 whole entry H1047Y): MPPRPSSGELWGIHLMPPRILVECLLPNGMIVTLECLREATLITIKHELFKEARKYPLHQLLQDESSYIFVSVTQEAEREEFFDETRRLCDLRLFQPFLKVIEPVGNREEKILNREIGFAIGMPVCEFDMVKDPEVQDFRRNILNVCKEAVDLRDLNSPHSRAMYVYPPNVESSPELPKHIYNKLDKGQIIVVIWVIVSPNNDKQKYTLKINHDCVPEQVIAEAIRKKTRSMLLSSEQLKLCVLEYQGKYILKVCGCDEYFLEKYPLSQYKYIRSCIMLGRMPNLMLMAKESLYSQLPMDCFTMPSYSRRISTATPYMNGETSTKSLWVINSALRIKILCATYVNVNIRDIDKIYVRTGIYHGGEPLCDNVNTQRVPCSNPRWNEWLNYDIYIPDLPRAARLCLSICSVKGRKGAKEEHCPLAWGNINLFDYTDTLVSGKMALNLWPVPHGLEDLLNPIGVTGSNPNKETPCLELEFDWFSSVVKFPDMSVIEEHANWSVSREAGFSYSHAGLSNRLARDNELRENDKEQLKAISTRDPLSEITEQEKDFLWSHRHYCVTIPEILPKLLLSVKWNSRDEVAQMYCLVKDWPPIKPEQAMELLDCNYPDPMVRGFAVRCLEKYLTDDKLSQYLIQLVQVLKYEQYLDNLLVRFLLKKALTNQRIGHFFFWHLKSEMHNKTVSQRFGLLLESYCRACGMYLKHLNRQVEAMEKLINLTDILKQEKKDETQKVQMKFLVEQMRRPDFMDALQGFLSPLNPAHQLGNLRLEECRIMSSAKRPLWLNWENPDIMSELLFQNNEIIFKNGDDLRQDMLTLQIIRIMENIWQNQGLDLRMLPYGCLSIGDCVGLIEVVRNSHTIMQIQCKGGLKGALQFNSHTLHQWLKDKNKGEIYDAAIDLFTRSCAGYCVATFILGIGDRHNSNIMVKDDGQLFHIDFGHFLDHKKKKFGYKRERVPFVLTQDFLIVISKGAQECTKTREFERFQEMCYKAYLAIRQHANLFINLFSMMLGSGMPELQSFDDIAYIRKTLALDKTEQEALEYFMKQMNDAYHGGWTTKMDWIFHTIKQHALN
T1 sequence (O14578 whole entry): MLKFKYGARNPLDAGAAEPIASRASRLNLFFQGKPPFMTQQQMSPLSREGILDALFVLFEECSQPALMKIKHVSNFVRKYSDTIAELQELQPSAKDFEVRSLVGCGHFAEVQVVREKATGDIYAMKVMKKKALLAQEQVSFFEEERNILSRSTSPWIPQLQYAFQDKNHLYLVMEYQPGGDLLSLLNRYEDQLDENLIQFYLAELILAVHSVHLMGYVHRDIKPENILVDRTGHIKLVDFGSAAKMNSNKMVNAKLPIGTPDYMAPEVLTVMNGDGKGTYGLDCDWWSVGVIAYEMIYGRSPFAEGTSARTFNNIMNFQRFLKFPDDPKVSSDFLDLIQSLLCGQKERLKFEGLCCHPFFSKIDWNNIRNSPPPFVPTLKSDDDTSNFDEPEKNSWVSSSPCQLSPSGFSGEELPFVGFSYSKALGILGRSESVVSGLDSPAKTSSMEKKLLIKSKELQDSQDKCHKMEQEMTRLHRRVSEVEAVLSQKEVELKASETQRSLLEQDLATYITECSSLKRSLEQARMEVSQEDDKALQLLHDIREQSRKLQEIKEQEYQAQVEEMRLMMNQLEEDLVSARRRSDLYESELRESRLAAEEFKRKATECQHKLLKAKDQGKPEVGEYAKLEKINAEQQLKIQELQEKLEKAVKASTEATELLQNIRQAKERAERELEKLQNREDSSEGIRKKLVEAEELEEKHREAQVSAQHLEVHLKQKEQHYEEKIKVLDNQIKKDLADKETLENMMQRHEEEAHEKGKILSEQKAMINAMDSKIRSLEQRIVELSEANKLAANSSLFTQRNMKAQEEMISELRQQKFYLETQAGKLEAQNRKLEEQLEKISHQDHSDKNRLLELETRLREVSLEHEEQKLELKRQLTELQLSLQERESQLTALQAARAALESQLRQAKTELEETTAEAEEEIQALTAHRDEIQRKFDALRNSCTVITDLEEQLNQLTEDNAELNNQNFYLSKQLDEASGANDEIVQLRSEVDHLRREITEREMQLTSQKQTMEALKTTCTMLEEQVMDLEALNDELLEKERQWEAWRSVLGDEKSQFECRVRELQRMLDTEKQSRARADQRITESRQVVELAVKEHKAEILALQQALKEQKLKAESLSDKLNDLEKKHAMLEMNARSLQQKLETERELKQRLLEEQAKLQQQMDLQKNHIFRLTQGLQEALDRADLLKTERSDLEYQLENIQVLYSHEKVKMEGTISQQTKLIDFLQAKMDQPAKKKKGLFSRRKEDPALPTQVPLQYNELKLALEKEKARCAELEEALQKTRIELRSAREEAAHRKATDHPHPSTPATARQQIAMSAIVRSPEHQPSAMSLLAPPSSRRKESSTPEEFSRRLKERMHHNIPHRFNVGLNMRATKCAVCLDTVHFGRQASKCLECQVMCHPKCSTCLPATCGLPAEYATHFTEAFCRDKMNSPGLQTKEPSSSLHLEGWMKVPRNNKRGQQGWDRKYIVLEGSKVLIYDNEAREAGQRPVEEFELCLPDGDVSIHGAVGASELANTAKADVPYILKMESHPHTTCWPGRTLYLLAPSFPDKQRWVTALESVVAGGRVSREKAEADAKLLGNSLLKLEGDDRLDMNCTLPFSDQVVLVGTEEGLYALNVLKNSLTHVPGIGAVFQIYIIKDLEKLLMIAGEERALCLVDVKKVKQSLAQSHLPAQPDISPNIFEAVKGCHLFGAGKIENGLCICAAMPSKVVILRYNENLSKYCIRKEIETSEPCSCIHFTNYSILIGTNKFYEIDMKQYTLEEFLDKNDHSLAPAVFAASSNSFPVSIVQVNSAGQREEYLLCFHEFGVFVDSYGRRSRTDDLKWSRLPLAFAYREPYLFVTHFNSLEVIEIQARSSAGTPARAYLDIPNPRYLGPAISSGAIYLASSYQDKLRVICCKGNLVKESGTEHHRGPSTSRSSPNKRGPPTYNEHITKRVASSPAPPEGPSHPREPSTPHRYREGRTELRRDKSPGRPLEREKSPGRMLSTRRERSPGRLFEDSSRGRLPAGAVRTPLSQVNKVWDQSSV
T3 sequence (Q14004 whole entry): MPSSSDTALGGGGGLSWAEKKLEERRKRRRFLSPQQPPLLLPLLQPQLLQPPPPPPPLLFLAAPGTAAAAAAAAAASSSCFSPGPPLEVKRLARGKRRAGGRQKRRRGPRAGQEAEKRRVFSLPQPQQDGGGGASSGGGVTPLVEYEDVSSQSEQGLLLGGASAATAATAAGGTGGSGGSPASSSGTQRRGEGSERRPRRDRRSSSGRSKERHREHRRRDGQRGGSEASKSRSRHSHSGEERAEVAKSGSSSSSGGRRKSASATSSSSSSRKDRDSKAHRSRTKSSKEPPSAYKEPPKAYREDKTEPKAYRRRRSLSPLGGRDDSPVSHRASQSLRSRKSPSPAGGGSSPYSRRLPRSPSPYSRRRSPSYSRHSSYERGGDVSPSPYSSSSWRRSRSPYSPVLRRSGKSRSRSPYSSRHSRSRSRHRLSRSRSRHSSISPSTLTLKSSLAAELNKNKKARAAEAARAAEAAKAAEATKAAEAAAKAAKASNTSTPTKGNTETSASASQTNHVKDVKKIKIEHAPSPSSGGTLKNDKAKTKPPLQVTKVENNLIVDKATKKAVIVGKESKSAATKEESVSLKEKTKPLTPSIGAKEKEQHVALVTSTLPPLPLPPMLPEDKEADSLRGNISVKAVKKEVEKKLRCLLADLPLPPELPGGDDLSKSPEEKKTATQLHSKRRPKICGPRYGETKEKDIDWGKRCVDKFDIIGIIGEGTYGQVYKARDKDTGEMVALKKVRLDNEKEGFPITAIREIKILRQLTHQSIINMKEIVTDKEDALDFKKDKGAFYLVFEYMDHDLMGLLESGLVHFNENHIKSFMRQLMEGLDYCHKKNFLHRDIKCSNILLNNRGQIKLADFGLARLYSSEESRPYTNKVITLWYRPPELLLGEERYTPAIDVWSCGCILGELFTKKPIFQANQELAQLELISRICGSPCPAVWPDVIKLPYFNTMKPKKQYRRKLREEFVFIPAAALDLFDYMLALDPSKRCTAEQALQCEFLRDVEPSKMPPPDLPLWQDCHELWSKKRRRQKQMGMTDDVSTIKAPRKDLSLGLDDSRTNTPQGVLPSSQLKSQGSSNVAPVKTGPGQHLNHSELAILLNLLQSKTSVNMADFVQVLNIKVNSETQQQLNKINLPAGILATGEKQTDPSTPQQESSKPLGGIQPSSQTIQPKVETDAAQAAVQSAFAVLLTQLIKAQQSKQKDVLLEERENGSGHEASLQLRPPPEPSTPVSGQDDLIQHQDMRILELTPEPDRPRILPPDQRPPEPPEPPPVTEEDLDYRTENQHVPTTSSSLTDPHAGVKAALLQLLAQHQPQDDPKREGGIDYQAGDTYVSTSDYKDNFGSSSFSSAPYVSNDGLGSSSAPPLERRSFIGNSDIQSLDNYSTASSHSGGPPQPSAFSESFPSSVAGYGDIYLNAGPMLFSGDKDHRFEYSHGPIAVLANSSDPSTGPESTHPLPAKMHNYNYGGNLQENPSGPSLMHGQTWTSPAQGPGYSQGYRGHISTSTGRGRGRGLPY

| Compound | KINOMEscan: CIT (panel of 442 kinases [1]) | KINOMEscan: PIK3CA(H1047Y) (panel of 442 kinases [2]) | KINOMEscan: CDC2L5 (panel of 442 kinases [3]) |
| --- | --- | --- | --- |
| COc1cc(C(=O)N2CCC(N3CCN(C)CC3)CC2)ccc1Nc1ncc2c(n1)N(C)c1ccccc1C(=O)N2C [15 (LRRK2-IN-1)] | 99 | 71 | 100 |
| COc1cc(C(=O)N2CCC(N3CCN(C)CC3)CC2)ccc1Nc1ncc2c(n1)N1CCc3cccc(c31)C(=O)N2C [Compound 24] | 1.5 | 68 |  |
| COc1cc(C(=O)N2CCC(N3CCN(C)CC3)CC2)ccc1Nc1ncc2c(n1)N(C1CCCC1)c1ccccc1C(=O)N2C [Compound 25, 11-cyclopentyl-2-((2-methoxy-4-(4-(4-methylpiperazin-1-yl)piperidine-1-carbonyl)phenyl)amino)-5-methyl-5H-benzo[e]pyrimido[5,4-b][1,4]diazepin-6(11H)-one] | 66 | 100 | 100 |
| CCOc1cc(C(=O)N2CCC(N3CCN(C)CC3)CC2)ccc1Nc1ncc2c(n1)N(C1CCCC1)c1ccccc1C(=O)N2C [Compound 26] | 98 | 76 | 100 |
